Target: T1, Gr180 (Helicoverpa armigera, UniProt Z9OE30KH69)
T1 construct: wild type 411 residues (239 + 172 as printed); seven TM domains predicted
T1 sequence (Z9OE30KH69 1-411): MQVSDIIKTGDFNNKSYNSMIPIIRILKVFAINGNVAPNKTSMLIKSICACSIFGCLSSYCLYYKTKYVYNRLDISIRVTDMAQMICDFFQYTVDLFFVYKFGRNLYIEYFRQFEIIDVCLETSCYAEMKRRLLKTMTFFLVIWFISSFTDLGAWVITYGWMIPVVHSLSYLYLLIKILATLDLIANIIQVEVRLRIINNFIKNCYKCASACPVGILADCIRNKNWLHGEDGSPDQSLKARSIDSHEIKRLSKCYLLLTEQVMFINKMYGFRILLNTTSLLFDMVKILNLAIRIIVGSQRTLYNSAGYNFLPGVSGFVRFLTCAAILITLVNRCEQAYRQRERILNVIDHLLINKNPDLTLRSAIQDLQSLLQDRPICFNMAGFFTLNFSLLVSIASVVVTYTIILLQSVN
Experiment: two-electrode voltage clamp, Xenopus oocytes
Type: cell-based
Conditions: 10^-2 M coumarin in Ringer solution; holding potential -80 mV; Gr180 expressed alone; agonist

average current at 10^-2 M: 241 nA
SMILES: O=c1ccc2ccccc2o1 [coumarin]

— article PMC9581421, “Functional analysis of a bitter gustatory receptor highly expressed in the larval maxillary galea of Helicoverpa armigera” (PLoS Genetics, 2022)
